Data reported in patent US7385026B1, “Modified ghrelin polypeptides” (priority 1999, dated 2008).
Square brackets hold non-standard residues; d marks the D form. Peptide text beside a SMILES is read from it. * marks the point of attachment. Octanoyl = CCCCCCCC(=O)*; Octyl = CCCCCCCC*

What follows are compounds tested against T1, rat GHS-receptor (GHR-R) (Rattus norvegicus, UniProt O08725) (assay: Ca-releasing activity (increase in intracellular calcium) in CHO-GHSR62 cells, FLIPR). Conditions: CHO-GHSR62 cells (CHO cells expressing rat GHS receptor), FLIPR; read-out: Ca-releasing activity EC50.
T1 construct: A full-length cDNA for rat GHR-R was obtained by RT-PCR; expressed in transfected cells
Type: cell-based
Excerpt: To assay an increase in the intracellular calcium ion concentration (Ca-releasing activity) occurring upon binding of a GH secretagogue (GHS) to GHS-receptor (GHR-R), a cell strain expressing rat GHR-R was created in the following manner. A full-length cDNA for rat GHR-R was obtained by RT-PCR (reverse transcriptase-polymerase chain reaction) where a cDNA derived from rat brain was used as template. From the nucleotide sequence of known rat GHR-R [K. K. Mckee, et al, Molecular Endocrinology 11, 415-423 (1997)], sense and antisense primers consisting of the following nucleotide sequences were synthesized.
The amplified cDNA was ligated to vector pcDNAIII (Invitrogen) to construct expression vector GHSR-pcDNAIII. CHO cells were transformed via the expression vector, and the transformed cells stably expressing GHR-R were selected in a medium containing 1 μg/ml G418. […] A change in the intracellular calcium ion concentration (Ca-releasing activity) was measured by an FLIPR system (Molecular Device). Before this measurement, 4×10^4 CHO-GHSR62 cells were put to a 96-well microplate with black wall (Corning Co., Ltd) and cultured for 12 to 15 hours. Then, the cells were incubated with 4 μM fluorescent Fluo4 (Molecular Probe Co., Ltd) for 1 hour and washed four times with Hank's BSS (Hank's Balanced Salt Solution) containing 20 mM Hepes ([N-2-hydroxyethyl]-piperazine-N-[2-ethanesulfonic acid]) and 2.5 mM probenecid, and the Ca-releasing activity was assayed by adding a sample and measuring a change in the fluorescence.
Peptide fragments obtained by partially digested the rat- and human-derived ghrelins by various proteases, or chemically synthesized peptides, were examined for their Ca releasing activity in order to determine a core amino acid sequence and the optimum chain length of a modifying fatty acid necessary for Ca-releasing activity.
The Ca-increasing activities of the ghrelin derivative peptide-type compounds synthesized in Example 10 and the natural ghrelin peptide were measured in the same manner as in Example 1.
In this examination, the intracellular Ca-releasing activity in CHO cells expressing rat GSH receptor was used as the indicator.

T1 sequence (O08725 whole entry): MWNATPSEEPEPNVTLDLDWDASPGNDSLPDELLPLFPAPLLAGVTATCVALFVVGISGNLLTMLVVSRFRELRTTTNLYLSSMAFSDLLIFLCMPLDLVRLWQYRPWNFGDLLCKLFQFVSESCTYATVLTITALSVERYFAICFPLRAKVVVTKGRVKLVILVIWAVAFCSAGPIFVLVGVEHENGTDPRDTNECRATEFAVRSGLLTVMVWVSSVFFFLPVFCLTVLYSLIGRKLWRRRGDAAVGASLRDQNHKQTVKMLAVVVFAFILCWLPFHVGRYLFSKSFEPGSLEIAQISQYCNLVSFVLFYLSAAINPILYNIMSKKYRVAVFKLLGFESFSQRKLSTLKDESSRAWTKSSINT

EC50 | SMILES
35 nM | CCCCCCCC(=O)OC[C@H](NC(=O)[C@H](Cc1c[nH]cn1)NC(=O)CN)C(=O)N[C@@H](Cc1ccccc1)C(=O)N[C@@H](CC(C)C)C(=O)N[C@@H](CO)C(=O)N1CCC[C@H]1C(N)=O [Compound 45, [His^2]-Ghrelin (1-7)-amide] (H-GHS(Octanoyl)FLSP-NH2)
24 nM | CCCCCCCC(=O)OC[C@H](NC(=O)[C@H](CCCCN)NC(=O)CN)C(=O)N[C@@H](Cc1ccccc1)C(=O)N[C@@H](CC(C)C)C(=O)N[C@@H](CO)C(=O)N1CCC[C@H]1C(N)=O [Compound 46, [Lys^2]-Ghrelin (1-7)-amide] (H-GKS(Octanoyl)FLSP-NH2)
78 nM | CCCCCCCC(=O)OC[C@H](NC(=O)CNC(=O)CN)C(=O)N[C@@H](Cc1ccccc1)C(=O)N[C@@H](CC(C)C)C(=O)N[C@@H](CO)C(=O)N1CCC[C@H]1C(N)=O [Compound 47, [Gly^2]-Ghrelin (1-7)-amide] (H-GGS(Octanoyl)FLSP-NH2)
7.4 nM | CCCCCCCCSC[C@H](NC(=O)[C@H](CO)NC(=O)CN)C(=O)N[C@@H](Cc1ccccc1)C(=O)N[C@@H](CC(C)C)C(=O)N[C@@H](CO)C(=O)N1CCC[C@H]1C(N)=O [Compound 48, [Cys^3(Octyl)]-Ghrelin (1-7)-amide] (H-GSC(Octyl)FLSP-NH2)
3000 nM | CCCCCCCCSC[C@H](NC(=O)[C@H](CO)NC(=O)CN)C(=O)N[C@H](Cc1ccccc1)C(=O)N[C@@H](CC(C)C)C(=O)N[C@@H](CO)C(=O)N1CCC[C@H]1C(N)=O [Compound 49, [Cys^3(Octyl), ^DPhe^4]Ghrelin (1-7)-amide] (H-GSC(Octyl)[dF]LSP-NH2)
5.8 nM | CCCCCCCCOC[C@H](NC(=O)[C@H](CO)NC(=O)CN)C(=O)N[C@@H](Cc1ccccc1)C(=O)N[C@@H](CC(C)C)C(=O)N[C@@H](CO)C(=O)N1CCC[C@H]1C(N)=O [Compound 50, [Ser^3(Octyl)]-Ghrelin (1-7)-amide]
> 10000 nM | CCCCCCCCOC[C@@H](NC(=O)[C@H](CO)NC(=O)CN)C(=O)N[C@@H](Cc1ccccc1)C(=O)N[C@@H](CC(C)C)C(=O)N[C@@H](CO)C(=O)N1CCC[C@H]1C(N)=O [Compound 52, [^DSer^3(Octyl)]-Ghrelin (1-7)-amide]
> 10000 nM | CCCCCCCCOC[C@@H](NC(=O)[C@H](CO)NC(=O)CN)C(=O)N[C@H](Cc1ccccc1)C(=O)N[C@@H](CC(C)C)C(=O)N[C@@H](CO)C(=O)N1CCC[C@H]1C(N)=O [Compound 53, [^DSer^3(Octyl), ^DPhe^4]-Ghrelin (1-7)-amide]
5.1 nM | CCCCCCCOC(=O)C[C@H](NC(=O)[C@H](CO)NC(=O)CN)C(=O)N[C@@H](Cc1ccccc1)C(=O)N[C@@H](CC(C)C)C(=O)N[C@@H](CO)C(=O)N1CCC[C@H]1C(=O)N[C@@H](CCC(=O)O)C(=O)N[C@@H](Cc1c[nH]cn1)C(=O)N[C@@H](CCC(N)=O)C(=O)N[C@@H](CCCNC(=N)N)C(=O)N[C@H](C(=O)N[C@@H](CCC(N)=O)C(=O)N[C@@H](CCC(N)=O)C(=O)N[C@@H](CCCNC(=N)N)C(=O)N[C@@H](CCCCN)C(=O)N[C@@H](CCC(=O)O)C(=O)N[C@@H](CO)C(=O)N[C@@H](CCCCN)C(=O)N[C@@H](CCCCN)C(=O)N1CCC[C@H]1C(=O)N1CCC[C@H]1C(=O)N[C@@H](C)C(=O)N[C@@H](CCCCN)C(=O)N[C@@H](CC(C)C)C(=O)N[C@@H](CCC(N)=O)C(=O)N1CCC[C@H]1C(=O)N[C@@H](CCCNC(=N)N)C(=O)O)C(C)C [Compound 54, [Asp^3(O-Heptyl)]-hGhrelin]
